Key:
[1] = system: bcl2 (DNA, G4) AGGGGCGGGCGCGGGAGGAAGGGGGCGGA; assay: CD melting; conditions: 2 mM K+ (KCl); 10 mM Tris-HCl pH 7.4, 50 µM drug, 5 µM DNA
[2] = system: VEGF (DNA, G4) CCCGGGGCGGGCCGGGGGCGGGGTCCCGGCGGGGCGGAG; assay: CD melting; conditions: 2 mM K+ (KCl); 10 mM Tris-HCl pH 7.4, 50 µM drug, 5 µM DNA
[3] = system: labeled c-myc (DNA, G4) TGAGGGTGGGTAGGGTGGGTAA; assay: FRET melting; conditions: 2 mM K+ (KCl); 2 µM HCQ, ~25 nM DNA
[4] = system: c-myc (DNA, G4) TGAGGGTGGGTAGGGTGGGTAA; assay: 1H NMR imino titration; conditions: 2 mM K+ (KCl), 100 µM DNA, H2O/D2O 90/10, 25 °C
[5] = system: Duplex (DNA, duplex) CAATCGGATCGAATTCGATCCGATTG; assay: CD melting; conditions: 2 mM K+ (KCl); 10 mM Tris-HCl pH 7.4, 50 µM drug, 5 µM DNA
[6] = system: c-kit (DNA, G4) CGGGCGGGCGCGAGGGAGGGG; assay: CD melting; conditions: 2 mM K+ (KCl); 10 mM Tris-HCl pH 7.4, 50 µM drug, 5 µM DNA
[7] = system: KRAS (DNA, G4) GGGAGGGAGGGAAGGAGGGAGGGAGGGA; assay: CD melting; conditions: 2 mM K+ (KCl); 10 mM Tris-HCl pH 7.4, 50 µM drug, 5 µM DNA
[8] = system: c-myc (DNA, G4) TGAGGGTGGGTAGGGTGGGTAA; assay: CD melting; conditions: 2 mM K+ (KCl); 10 mM Tris-HCl pH 7.4, 50 µM drug, 5 µM DNA

Row | SMILES | ΔTm [1] [°C] | ΔTm [2] [°C] | Tm increase [3] | binding ([4]; 5' end stacking) | binding [5] | ΔTm [6] [°C] | ΔTm [7] [°C] | ΔTm [8] | binding [4]
1 | CCN(CCO)CCCC(C)Nc1ccnc2cc(Cl)ccc12 (stereo not shown) | 7 | 9 | ~ 12 °C | yes | no | 11 | 12 | ~ 17 °C | 
2 | CCN(CC)CCCC(C)Nc1ccnc2cc(Cl)ccc12 (stereo not shown) |  |  |  |  | no |  |  |  | 
3 | Nc1ccnc2cc(Cl)ccc12 |  |  |  |  |  |  |  |  | yes
